Compound: C/C(=N\NC(=S)N1CCC1)/C2=CC=CC=N2 + CS(=O)(=O)N1CCN(Cc2cc3nc(-c4cccc5[nH]ncc45)nc(N4CCOCC4)c3s2)CC1 [Pictilisib] (partner 1 µM)
Assay: relative viability (nuclei count vs DMSO), 5 days (fraction); higher = more cells survive
Procedure, shortened: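 Nuclei were stained with Hoechst during a one-step fixation (final 0.05% Triton X-100, 1% formaldehyde, 1 ug/ml Hoechst) carried out 5 days after dosing, then counted on 4× images. The cells, lung cancer lines in 1536-well plates, had been dosed by pin tool the day after seeding with one drug alone or a fixed anchor-drug dose plus five library-drug doses (not always all listed) in √10 steps. Relative viability is the nuclei count in treated wells divided by that in vehicle wells, and each value is the median of duplicate plates.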

Row | Cell Line | relative viability (first compound 0.05 µM) | relative viability (first compound 0.1581 µM) | relative viability (first compound 0.5 µM) | relative viability (first compound 1.581 µM) | relative viability (first compound 5 µM)
1 | NCI-H650 | 0.234 | 0.235 | 0.25 | 0.201 | 0.202
2 | NCI-H661 | 0.222 | 0.239 | 0.232 | 0.237 | 0.21
3 | NCI-H727 | 0.236 | 0.195 | 0.154 | 0.15 | 0.139
4 | NCI-H838 | 0.172 | 0.207 | 0.167 | 0.102 | 0.157
5 | NCI-H1299 | 0.0583 | 0.0875 | 0.103 | 0.0673 | 0.0511
6 | NCI-H1355 | 0.198 | 0.165 | 0.178 | 0.172 | 0.148
7 | NCI-H1395 | 0.386 | 0.371 | 0.305 | 0.343 | 0.377
8 | NCI-H1437 | 0.0885 | 0.101 | 0.0858 | 0.0683 | 0.0721
9 | NCI-H1563 | 0.593 | 0.519 | 0.614 | 0.561 | 0.584
10 | NCI-H1650 | 0.17 | 0.214 | 0.186 | 0.165 | 0.193
11 | NCI-H1651 | 0.0849 | 0.0897 | 0.0884 | 0.0807 | 0.0572
12 | NCI-H1666 | 0.158 | 0.22 | 0.234 | 0.176 | 0.2
13 | NCI-H1703 | 0.102 | 0.0942 | 0.162 | 0.159 | 0.167
14 | NCI-H1734 | 0.15 | 0.151 | 0.149 | 0.115 | 0.139
15 | NCI-H1755 | 0.171 | 0.168 | 0.162 | 0.157 | 0.136
16 | NCI-H1792 | 0.193 | 0.149 | 0.122 | 0.0959 | 0.0891
17 | NCI-H1793 | 0.195 | 0.203 | 0.163 | 0.172 | 0.15
18 | NCI-H1915 | 0.208 | 0.189 | 0.17 | 0.144 | 0.153
19 | NCI-H1944 | 0.229 | 0.305 | 0.241 | 0.182 | 0.182

Row | Cell Line | relative viability (first compound 0.05 µM) | relative viability (first compound 0.1581 µM) | relative viability (first compound 0.5 µM) | relative viability (first compound 1.581 µM) | relative viability (first compound 5 µM)
20 | NCI-H1975 | 0.123 | 0.136 | 0.127 | 0.131 | 0.136
21 | NCI-H1993 | 0.743 | 0.673 | 0.765 | 0.676 | 0.692
22 | NCI-H2009 | 0.144 | 0.156 | 0.178 | 0.172 | 0.0975
23 | NCI-H2023 | 0.064 | 0.0997 | 0.084 | 0.0661 | 0.0904
24 | NCI-H2085 | 0.27 | 0.301 | 0.353 | 0.326 | 0.296
25 | NCI-H2087 | 0.302 | 0.219 | 0.258 | 0.205 | 0.153
26 | NCI-H2126 | 0.247 | 0.267 | 0.254 | 0.227 | 0.216
27 | NCI-H2170 | 0.158 | 0.188 | 0.178 | 0.192 | 0.167
28 | NCI-H2228 | 0.148 | 0.285 | 0.168 | 0.163 | 0.12
29 | NCI-H2347 | 0.275 | 0.311 | 0.286 | 0.275 | 0.253
30 | NCI-H2405 | 0.185 | 0.206 | 0.232 | 0.209 | 0.275
31 | NCI-H3122 | 0.15 | 0.129 | 0.167 | 0.23 | 0.187
32 | PC-3 [JPC-3] | 0.278 | 0.319 | 0.31 | 0.279 | 0.221
33 | PC-14 | 0.0639 | 0.0478 | 0.0584 | 0.0411 | 0.0523
34 | RERF-LC-KJ | 0.19 | 0.17 | 0.173 | 0.18 | 0.191
35 | SK-LU-1 | 0.166 | 0.188 | 0.212 | 0.158 | 0.139
36 | SK-MES-1 | 0.168 | 0.174 | 0.153 | 0.139 | 0.162
37 | SW 1573 | 0.102 | 0.0856 | 0.0985 | 0.104 | 0.0817
38 | UMC-11 | 0.19 | 0.174 | 0.189 | 0.144 | 0.133

Source: the supplement of paper PMC10307832
